Results taken from patent US9193736B2, “PDE 10a inhibitors for the treatment of type II diabetes” (Janssen Pharmaceutica, NV, priority 2013, dated 2015).
Counter-ions that a name gives are not always drawn.

Assays:
[1] = molecular target: Rat recombinant PDE10a (rPDE10a) (Rattus norvegicus (Rat), UniProt Q9QYJ6); assay: In vitro assay PDE10a: rat recombinant PDE10a SPA with 3H-cAMP substrate, IC50; type: biochemical; details: 60 nM cAMP, read-out: rPDE10a2 IC50
How it was run: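 Enzyme expressed in Sf9 cells via baculovirus and Ni-sepharose purified; reaction with 3H-cAMP ran 60 min at rt, stopped with PDE SPA beads. Compounds diluted in DMSO at 100-fold final concentration; blanks omitted enzyme.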

[2] = molecular target: Human recombinant PDE10A2 (Homo sapiens (Human), UniProt Q9Y233); assay: In vitro hPDE10a: human recombinant PDE10A2 scintillation proximity assay, IC50; type: biochemical; details: human recombinant PDE10A2, SPA, 60 nM cAMP; read-out: hPDE10a2 IC50
Sequence of Human recombinant PDE10A2 (Q9Y233 267-1055): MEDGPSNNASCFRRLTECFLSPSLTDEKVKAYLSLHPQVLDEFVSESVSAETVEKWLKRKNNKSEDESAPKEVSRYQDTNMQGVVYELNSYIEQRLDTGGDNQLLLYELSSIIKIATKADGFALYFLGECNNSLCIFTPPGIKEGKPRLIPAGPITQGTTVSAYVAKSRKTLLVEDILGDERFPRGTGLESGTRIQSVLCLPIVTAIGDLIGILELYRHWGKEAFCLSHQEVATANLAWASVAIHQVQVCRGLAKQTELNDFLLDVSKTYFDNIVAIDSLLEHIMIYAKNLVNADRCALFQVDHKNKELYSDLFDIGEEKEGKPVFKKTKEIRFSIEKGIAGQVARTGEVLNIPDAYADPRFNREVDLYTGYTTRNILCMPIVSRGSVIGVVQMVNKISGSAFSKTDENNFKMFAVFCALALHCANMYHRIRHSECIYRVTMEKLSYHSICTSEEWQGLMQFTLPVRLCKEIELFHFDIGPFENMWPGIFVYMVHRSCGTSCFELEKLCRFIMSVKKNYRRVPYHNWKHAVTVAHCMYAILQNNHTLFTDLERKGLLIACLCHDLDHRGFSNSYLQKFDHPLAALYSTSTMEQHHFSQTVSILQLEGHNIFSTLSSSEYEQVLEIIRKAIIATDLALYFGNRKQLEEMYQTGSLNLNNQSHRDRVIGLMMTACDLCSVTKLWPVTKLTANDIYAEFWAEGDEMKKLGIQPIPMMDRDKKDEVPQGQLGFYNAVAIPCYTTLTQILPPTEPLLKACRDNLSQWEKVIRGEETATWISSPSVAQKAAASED
How it was run: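 Purified recombinant human PDE10A2 (Ni-sepharose) was assayed by SPA, counting [3H]-AMP product captured on yttrium silicate beads added in zinc sulphate stop solution. Inhibition was expressed as % of activity without compound, with a no-enzyme low control. Repeat data points were aggregated.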

[3] = PDE10a perfused brain permeability study: plasma concentrations at 30 and 120 min, brain concentration at 120 min, brain/plasma ratio; details: male, Sprague-Dawley, rat; for Kp at 2 h: brain/plasma
Experimental: PDE10a-Brain Permeability Assay
A. PDE10a-Perfused Brain Permeability Study Protocol
Drug administration by oral gavage, subcutaneous injection or intravenous was carried out using male Sprague Dawley rats under IACUC protocol (SH-MET3010). Male Sprague Dawley rats (Charles River) ˜300-350 g were maintained on a 4% standard rodent diet (Test Diet 5001). They are allowed ad libitum access to water and food. Room temperature was maintained at 64° F. and humidity at 30-70%.
Three animals per compound were provided a dose of 2 mg/mL in 20% HpbCD/Tris pH 8 by tail i.v. or 30 mpk p.o. or s.c. in 20% HpbCD/Tris pH 8, with PDE10a antagonists. A first blood sample was collected at 30 min via retro-orbital sinus (anesthetic by 70% CO2/30% O2) into heparinzed plasma separator tubes. The blood was centrifuged and 100 μL plasma was placed into a 96 well plate and saved on dry ice.
After the 120 min, the final blood sample was collected via retro-orbital sinus under anesthesia by IP 0.5 cc injection of a 4/1 mixture of Ketaset: AnaSed [(prepared 10 mL Ketaset (100 mg/mL Ketamine)+2.5 mL AnaSed (20 mg/mL Xylazine)]. The rats were then perfused with 400 mL heparinized saline (10,000 units/L) through the left ventricle of the heart; the brains were then removed (not including the medulla), weighed and homogenized in PBS (4 mL/g tissue). The samples were stored at −80° C. and submitted for chemical analysis of blood and brain concentrations. Endpoints of sample analysis consists of the plasma concentrations at 30 and 120 min, plus brain concentrations at 120 min.

Sequence of Rat recombinant PDE10a (rPDE10a) (Q9QYJ6 whole entry): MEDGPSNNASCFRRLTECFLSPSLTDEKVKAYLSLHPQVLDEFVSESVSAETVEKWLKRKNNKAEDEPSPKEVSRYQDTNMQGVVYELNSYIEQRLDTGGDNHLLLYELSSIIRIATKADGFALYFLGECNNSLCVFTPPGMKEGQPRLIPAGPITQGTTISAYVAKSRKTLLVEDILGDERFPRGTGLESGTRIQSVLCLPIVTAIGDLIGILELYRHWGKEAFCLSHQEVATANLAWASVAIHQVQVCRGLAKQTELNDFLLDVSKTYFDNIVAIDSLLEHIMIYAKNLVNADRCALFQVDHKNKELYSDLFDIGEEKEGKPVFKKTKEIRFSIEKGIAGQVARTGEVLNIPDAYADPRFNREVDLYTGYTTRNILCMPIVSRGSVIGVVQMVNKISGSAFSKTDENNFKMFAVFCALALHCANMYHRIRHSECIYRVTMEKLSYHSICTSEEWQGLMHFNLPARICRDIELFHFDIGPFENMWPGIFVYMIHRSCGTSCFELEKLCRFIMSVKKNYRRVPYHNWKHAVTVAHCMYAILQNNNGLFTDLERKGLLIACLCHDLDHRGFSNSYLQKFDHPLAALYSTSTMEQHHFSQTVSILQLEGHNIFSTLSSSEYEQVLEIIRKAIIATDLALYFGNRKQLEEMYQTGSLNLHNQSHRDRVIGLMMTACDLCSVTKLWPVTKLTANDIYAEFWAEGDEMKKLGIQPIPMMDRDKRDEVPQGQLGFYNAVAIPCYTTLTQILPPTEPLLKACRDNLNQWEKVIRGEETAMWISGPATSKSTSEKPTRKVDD

| Compound | IC50 [1] | IC50 [2] | concentration at 2 h ([3]; brain) | Kp at 2 h [3] | concentration at 2 h ([3]; plasma) |
| --- | --- | --- | --- | --- | --- |
| NS(=O)(=O)N1CCN(c2ccc(-c3c(CSc4ccc5ccccc5n4)nc4c(N5CCOCC5)ccnn34)cn2)CC1 [Cpd 20, 4-(5-(8-Morpholino-2-((quinolin-2-ylthio)methyl)imidazo[1,2-b]pyridazin-3-yl)pyridin-2-yl)piperazine-1-sulfonamide] | 2 nM | 18 nM | 152 ng/g | 0.31 | 492 ng/mL |
| O=C(O)CNc1ccc(-c2c(C#Cc3ccc4ccccc4n3)nc3c(N4CCOCC4)ccnn23)cn1 [Cpd 24, 2-(5-(8-Morpholino-2-(2-(quinolin-2-yl)ethynyl)imidazo[1,2-b]pyridazin-3-yl)pyridin-2-ylamino)acetic acid trifluoroacetic acid salt] | 1 nM | 1 nM | 1.35 ng/g | 0.2 | 5.37 ng/mL |
| CS(=O)(=O)NC(=O)c1ccc(-c2c(/C=C/c3ccc4ccccc4n3)nc3c(N4CCOCC4)ccnn23)cn1 [Cpd 27, (E)-N-(Methylsulfonyl)-5-(8-morpholino-2-(2-(quinolin-2-yl)vinyl)imidazo[1,2-b]pyridazin-3-yl)picolinamide trifluoroacetic acid salt] | 2 nM | 2 nM | 1.69 ng/g | 0.005 | 438 ng/mL |
| CS(=O)(=O)NC(=O)c1ccc(-c2c(C#Cc3ccc4ccccc4n3)nc3c(N4CCOCC4)ccnn23)cn1 [Cpd 28, N-(Methylsulfonyl)-5-(8-morpholino-2-(quinolin-2-ylethynyl)imidazo[1,2-b]pyridazin-3-yl)picolinamide] | 1 nM | 1 nM | 0.95 ng/g | 0.01 | 136 ng/mL |
| CS(=O)(=O)NC(=O)c1ccc(-c2c(CCc3ccc4ccccc4n3)nc3c(N4CCOCC4)ccnn23)cn1 [Cpd 30, N-(Methylsulfonyl)-5-(8-morpholino-2-(2-(quinolin-2-yl)ethyl)imidazo[1,2-b]pyridazin-3-yl)picolinamide trifluoroacetic acid salt] | 2 nM | 1 nM | 40.2 ng/g | 2.5 | 107 ng/mL |
| Oc1ncn(-c2ccc(-c3c(/C=C/c4ccc5ccccc5n4)nc4c(N5CCOCC5)ccnn34)cc2)n1 [Cpd 54, (E)-1-(4-(8-Morpholino-2-(2-(quinolin-2-yl)vinyl)imidazo[1,2-b]pyridazin-3-yl)phenyl)-1H-1,2,4-triazol-3-ol trifluoroacetic acid salt] | 11 nM | 7 nM | 0 ng/g | 0 | 23 ng/mL |
| Oc1nc(O)c(-c2ccc(-c3c(/C=C/c4ccc5ccccc5n4)nc4c(N5CCOCC5)ccnn34)cc2)o1 [Cpd 65, 5-(4-{8-Morpholin-4-yl-2-[(E)-2-quinolin-2-ylethenyl]imidazo[1,2-b]pyridazin-3-yl}phenyl)-1,3-oxazole-2,4-diol] | 8 nM | 10 nM | 14.5 ng/g | 0.01 | 1610 ng/mL |
| Cn1nc(-c2ccc(-c3c(/C=C/c4ccc5ccccc5n4)nc4c(N5CCOCC5)ccnn34)cc2)nc1O [Cpd 74, (E)-2-Methyl-5-(4-(8-morpholino-2-(2-(quinolin-2-yl)vinyl)imidazo[1,2-b]pyridazin-3-yl)phenyl)-2H-1,2,4-triazol-3-ol] | 13 nM | 13 nM | 34.7 ng/g | 0.04 | 857 ng/mL |
| O=C(O)c1ccc(-c2c(/C=C/c3ccc4c(n3)CCCC4)nc3c(N4CCOCC4)ccnn23)cc1 [Cpd 76, (E)-4-(8-Morpholino-2-(2-(5,6,7,8-tetrahydroquinolin-2-yl)vinyl)imidazo[1,2-b]pyridazin-3-yl)benzoic acid] | 7 nM | 5 nM | 9.3 ng/g | 0.02 | 568 ng/mL |
